The supplement of paper PMC10307832

Legend:
Assay in all cases: relative viability (nuclei count vs DMSO), 5 days (fraction); higher = more cells survive
[1] = compound: C1=CC2=C(C=CC(=C2)C=C3C(=O)NC(=NCC4=CC=CS4)S3)N=C1 [RO-3306] + CC(=O)c1c(C)c2cnc(Nc3ccc(N4CCNCC4)cn3)nc2n(C2CCCC2)c1=O [Palbociclib] (partner 0.5 µM)
How it was run: (§1)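 For relative viability, nuclei counts in treated wells were divided by those in vehicle wells. Lung cancer cell lines had been pin-tool dosed in 1536-well plates the day after seeding and cultured for 5 days, then fixed and stained in one step (final 0.05% Triton X-100, 1% formaldehyde, 1 ug/ml Hoechst) and imaged at 4×. Doses were one drug alone or a fixed anchor-drug dose plus five library-drug doses (not always all listed) in √10 steps, and values are duplicate-plate medians.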

[2] = compound: C1=CC2=C(C=CC(=C2)C=C3C(=O)NC(=NCC4=CC=CS4)S3)N=C1 [RO-3306] + Nc1nc2[nH]cc(CCc3ccc(C(=O)N[C@@H](CCC(=O)O)C(=O)O)cc3)c2c(=O)[nH]1 [Pemetrexed] (partner 0.2 µM)
How it was run: as §1

[3] = compound: O=S(=O)(c1ccccc1)N(CC(F)(F)F)c1ccc(C(O)(C(F)(F)F)C(F)(F)F)cc1 + CC(C)C[C@H](NC(=O)[C@H](Cc1ccccc1)NC(=O)c1cnccn1)B(O)O [Bortezomib] (partner 0.002 µM)
How it was run: as §1

[4] = compound: O=S(=O)(c1ccccc1)N(CC(F)(F)F)c1ccc(C(O)(C(F)(F)F)C(F)(F)F)cc1 + Cc1cc(Nc2cc(N3CCN(C)CC3)nc(Sc3ccc(NC(=O)C4CC4)cc3)n2)n[nH]1 [Tozasertib] (partner 0.1 µM)
How it was run: as §1

Cell Line	relative viability ([1]; first compound 0.01 µM)	relative viability ([1]; first compound 0.03162 µM)	relative viability ([1]; first compound 0.1 µM)	relative viability ([1]; first compound 0.3162 µM)	relative viability ([1]; first compound 1 µM)	relative viability ([2]; first compound 0.01 µM)	relative viability ([2]; first compound 0.03162 µM)	relative viability ([2]; first compound 0.1 µM)	relative viability ([2]; first compound 0.3162 µM)	relative viability ([2]; first compound 1 µM)	relative viability ([3]; first compound 0.8 µM)	relative viability ([3]; first compound 2.53 µM)	relative viability ([3]; first compound 8 µM)	relative viability ([4]; first compound 0.8 µM)	relative viability ([4]; first compound 2.53 µM)	relative viability ([4]; first compound 8 µM)
201T	0.31	0.342	0.325	0.36	0.367	0.277	0.315	0.358	0.32	0.41	1.02	1.04	1	0.927	0.854	0.863
A-427	0.502	0.513	0.545	0.57	0.516	0.942	0.902	0.966	0.937	0.607	0.973	0.916	1.07	0.186	0.216	0.298
ABC-1	0.869	0.406	0.66	0.799	0.458						0.27	0.297	0.293	0.172	0.19	0.202
BEN	0.49	0.438	0.458	0.473	0.476	0.634	0.735	0.728	0.769	0.803	0.843	0.844	0.866	0.615	0.549	0.508
CAL-12T	0.67	0.396	0.385	0.388	0.475	1.38	1.35	1.17	1.15	1.26		0.964	0.958	0.299	0.331	0.242
COR-L23	0.286	0.252	0.293	0.297	0.257	0.179	0.216	0.214	0.194	0.187	1.18	0.945	0.914	0.159	0.152	0.164
COR-L 105	0.392	0.408	0.412	0.404	0.385	1.25	0.993	1.04	0.913	0.95	0.846	0.75	0.702	0.337	0.342	0.435
Calu-6											0.885	0.852	0.769			
ChaGo-K-1	1.04	0.854	0.911	0.871	0.578	0.319	0.266	0.331	0.259	0.249	1.1	0.933	1.47	0.225	0.209	0.235
EBC-1											0.405	0.357	0.415			
EKVX	0.346	0.37	0.332	0.447	0.393	0.416	0.306	0.405	0.444	0.454	1.1	0.918	1.15	0.405	0.344	0.325
EMC-BAC-2	0.501	0.461	0.514	0.516	0.494	0.427	0.423	0.431	0.458	0.394	1.07	1.1	1.02	0.293	0.284	0.28
EPLC-272H	0.254		0.342	0.304	0.302	0.36	0.436	0.406	0.3	0.247	0.964	0.899	0.656	0.366	0.379	0.312
H3255	0.299	0.373	0.294	0.305	0.321	0.506	0.501	0.547	0.57	0.57	0.564	0.708	0.761	0.629	0.663	0.66
HARA	0.207		0.265	0.24	0.311	0.242		0.227	0.24	0.288	1.12	1.04	1.04	0.0946	0.0891	0.102
HCC-15	0.787	0.606	0.677	0.669	0.742	0.203	0.21	0.26	0.225	0.199	1.08	0.923	0.948	0.498	0.341	0.322
HCC-44	1.01	0.932	0.993	0.96	0.952	0.712	0.643	0.651	0.622	0.744	1.06	0.871	0.863		0.862	0.894
HCC-78	0.483	0.518	0.504	0.548	0.403	0.948	0.83	0.91	0.9	0.923	0.531	0.39	0.52	0.691	0.375	0.433
HCC-366	0.531	0.395	0.381	0.382	0.316	0.215	0.194	0.198	0.137	0.213	1.23	1.08	1.08	0.133	0.0684	0.0773
HCC-827	0.462	0.477	0.461	0.54	0.54	0.265	0.26	0.27	0.254	0.277	1.08	0.979	1.04	0.419	0.414	0.406
HOP-62	0.519	0.481	0.416	0.43	0.446	0.371	0.438	0.318	0.307	0.416	0.39	0.634	0.93	0.392	0.35	0.26
IA-LM											0.727	0.522	0.77			
LC-2-ad	0.504	0.399	0.512	0.515	0.483	0.291	0.26	0.278	0.278	0.27	1.02	1.03	0.898	0.496	0.492	0.474
LCLC-97TM1	0.203	0.218	0.237	0.214	0.194	0.175	0.169	0.144	0.178	0.185	0.397	0.457	0.723	0.218	0.21	0.156

Cell Line	relative viability ([1]; first compound 0.01 µM)	relative viability ([1]; first compound 0.03162 µM)	relative viability ([1]; first compound 0.1 µM)	relative viability ([1]; first compound 0.3162 µM)	relative viability ([1]; first compound 1 µM)	relative viability ([2]; first compound 0.01 µM)	relative viability ([2]; first compound 0.03162 µM)	relative viability ([2]; first compound 0.1 µM)	relative viability ([2]; first compound 0.3162 µM)	relative viability ([2]; first compound 1 µM)	relative viability ([3]; first compound 0.8 µM)	relative viability ([3]; first compound 2.53 µM)	relative viability ([3]; first compound 8 µM)	relative viability ([4]; first compound 0.8 µM)	relative viability ([4]; first compound 2.53 µM)	relative viability ([4]; first compound 8 µM)
LCLC-103H	0.472	0.462	0.514	0.492	0.486	0.474	0.461	0.448	0.457	0.464	1.18	1.04	1.12	0.541	0.447	0.349
LK-2	0.862	0.574	0.615	0.908	0.651	0.266	0.293	0.264	0.275	0.288				0.174	0.188	0.189
LOU-NH91	0.538	0.547	0.542	0.526	0.53	0.354	0.346	0.346	0.399	0.373	0.536	0.51	0.484	0.735	0.701	0.678
LU99A	0.438	0.418	0.425	0.374	0.386	0.285	0.267	0.174	0.176	0.188	1.34	1.17	1.16	0.235	0.238	0.253
LXF-289	0.62	0.631	0.627	0.577	0.616	0.805	0.8	1.04	0.9	0.868	0.952	0.899	0.898	0.213	0.203	0.153
NCI-H23	0.513		0.46	0.472	0.454	0.695		0.723	0.591	0.617	1.45	1.23	1.09	0.315	0.307	0.331
NCI-H322M	0.472	0.469	0.502	0.433	0.478	0.624	0.613	0.574	0.695	0.592	1.48	1.02	1.23	0.562	0.575	0.467
NCI-H358	0.163	0.106	0.126	0.116	0.112	0.192	0.154	0.177	0.189	0.174				0.107	0.0905	0.0846
NCI-H522	1.2	0.965	1.01	1.02	1.04	1.16	0.947	0.868	1.16	1.03				0.567	0.488	0.615
NCI-H596						0.519	0.403	0.467	0.522	0.452	0.997	0.791	0.843	0.907	0.761	0.75
NCI-H727	0.623	0.613	0.552	0.557	0.604						1.23	0.762	0.737	0.605	0.572	0.674
NCI-H1299											1.02	0.981	0.946			
NCI-H1395	0.696	0.678	0.58	0.641	0.558	0.678	0.751	0.728	0.726	0.549				0.737	0.671	0.82
NCI-H1563						0.847	0.788	0.818	0.852	0.692	0.915	0.927	0.685			
NCI-H1623														0.399	0.396	0.366
NCI-H1648	0.277		0.284	0.246	0.224	0.887		0.602	0.697	0.873				0.408	0.293	0.339
NCI-H1703											0.389	0.185	0.381			
NCI-H1792	0.688		0.653	0.708	0.698	1.11		0.649	0.757	0.749	0.973	0.842	0.737			
NCI-H1793	0.222		0.279	0.296	0.388	0.971		0.771	0.901	0.667				0.31	0.249	0.269
NCI-H1944	0.336	0.339	0.34	0.333	0.333	0.794	0.63	0.663	0.611	0.671				0.263	0.263	0.234
NCI-H2170	0.416	0.398	0.372	0.433	0.378	0.314	0.311	0.241	0.251	0.271				0.784	0.616	0.629
NCI-H2342	0.515	0.512	0.494	0.498	0.527	0.71	0.778	0.816	0.817	0.759				0.483	0.609	0.493
SK-MES-1	0.355	0.305	0.352	0.289	0.272	1.14	1	0.981	0.968	0.938				1.11	1.05	0.962
SW 900	0.61	0.505	0.539	0.542	0.51	0.487	0.383	0.464	0.488	0.411				0.528	0.426	0.404
